In PMC4979471 (Cell Death Discovery, 2015):
Read-outs that look alike come from different tables or passages of the source.

Assays:
Assay in all cases: Kinase selectivity, P33-radiolabeled assay
Type in all cases: biochemical
Details in all cases: 10 μM ATP
CDK1/cyclin B = target: T1, CDK1/cyclin B (Homo sapiens, UniProt P06493)
T1 construct: purchased Reaction Biology Corp
Summary of the method: (§1)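 Activity relative to DMSO controls (%) was measured for compound at 10 μM. Assays ran at 10 μM ATP, in duplicate.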

CDK3/cyclin E = target: T2, CDK3/cyclin E (Homo sapiens, UniProt Q00526)
T2 construct: purchased Reaction Biology Corp
Summary of the method: as §1

CHK2 = target: T3, CHK2 (Homo sapiens, UniProt O96017)
T3 construct: purchased Reaction Biology Corp
Summary of the method: as §1

CK2a2 = target: T4, CK2a2 (Homo sapiens, UniProt P19784)
T4 construct: purchased Reaction Biology Corp
Summary of the method: as §1

FLT3 = target: T5, FLT3 (Homo sapiens, UniProt P36888)
T5 construct: purchased Reaction Biology Corp
T5 sequence (P36888 27-993): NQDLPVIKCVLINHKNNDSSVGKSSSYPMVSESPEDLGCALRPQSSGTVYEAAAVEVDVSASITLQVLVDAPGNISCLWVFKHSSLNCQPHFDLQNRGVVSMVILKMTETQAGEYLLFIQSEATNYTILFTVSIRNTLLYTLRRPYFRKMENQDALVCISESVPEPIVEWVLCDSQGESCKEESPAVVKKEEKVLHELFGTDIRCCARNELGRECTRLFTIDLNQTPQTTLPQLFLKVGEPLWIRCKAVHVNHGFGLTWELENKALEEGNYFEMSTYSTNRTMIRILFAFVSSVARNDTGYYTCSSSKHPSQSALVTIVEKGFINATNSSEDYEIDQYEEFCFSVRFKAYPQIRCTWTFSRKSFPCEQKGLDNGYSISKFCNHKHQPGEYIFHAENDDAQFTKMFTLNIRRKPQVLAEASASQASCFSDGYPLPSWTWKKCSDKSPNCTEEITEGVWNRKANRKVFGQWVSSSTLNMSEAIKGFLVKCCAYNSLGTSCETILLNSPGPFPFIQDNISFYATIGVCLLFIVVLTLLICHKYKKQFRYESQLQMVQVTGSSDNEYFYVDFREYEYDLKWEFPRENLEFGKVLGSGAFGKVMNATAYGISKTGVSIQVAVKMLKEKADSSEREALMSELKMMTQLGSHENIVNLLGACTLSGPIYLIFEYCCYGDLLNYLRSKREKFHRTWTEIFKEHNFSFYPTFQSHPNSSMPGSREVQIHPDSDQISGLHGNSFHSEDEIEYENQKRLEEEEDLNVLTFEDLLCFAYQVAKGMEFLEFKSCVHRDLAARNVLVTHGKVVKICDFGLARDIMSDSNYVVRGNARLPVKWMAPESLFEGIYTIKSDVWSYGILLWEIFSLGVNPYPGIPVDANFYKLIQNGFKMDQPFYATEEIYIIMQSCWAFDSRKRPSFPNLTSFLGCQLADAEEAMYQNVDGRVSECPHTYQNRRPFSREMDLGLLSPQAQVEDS
Summary of the method: as §1

HPK1/MAP4K1 = target: T6, HPK1/MAP4K1 (Homo sapiens, UniProt Q92918)
T6 construct: purchased Reaction Biology Corp
Summary of the method: as §1

MARK3 = target: T7, MARK3 (Homo sapiens, UniProt P27448)
T7 construct: purchased Reaction Biology Corp
Summary of the method: as §1

RIPK5 = target: T8, RIPK5 (Homo sapiens, UniProt Q6XUX3)
T8 construct: purchased Reaction Biology Corp
T8 sequence (Q6XUX3 1-929): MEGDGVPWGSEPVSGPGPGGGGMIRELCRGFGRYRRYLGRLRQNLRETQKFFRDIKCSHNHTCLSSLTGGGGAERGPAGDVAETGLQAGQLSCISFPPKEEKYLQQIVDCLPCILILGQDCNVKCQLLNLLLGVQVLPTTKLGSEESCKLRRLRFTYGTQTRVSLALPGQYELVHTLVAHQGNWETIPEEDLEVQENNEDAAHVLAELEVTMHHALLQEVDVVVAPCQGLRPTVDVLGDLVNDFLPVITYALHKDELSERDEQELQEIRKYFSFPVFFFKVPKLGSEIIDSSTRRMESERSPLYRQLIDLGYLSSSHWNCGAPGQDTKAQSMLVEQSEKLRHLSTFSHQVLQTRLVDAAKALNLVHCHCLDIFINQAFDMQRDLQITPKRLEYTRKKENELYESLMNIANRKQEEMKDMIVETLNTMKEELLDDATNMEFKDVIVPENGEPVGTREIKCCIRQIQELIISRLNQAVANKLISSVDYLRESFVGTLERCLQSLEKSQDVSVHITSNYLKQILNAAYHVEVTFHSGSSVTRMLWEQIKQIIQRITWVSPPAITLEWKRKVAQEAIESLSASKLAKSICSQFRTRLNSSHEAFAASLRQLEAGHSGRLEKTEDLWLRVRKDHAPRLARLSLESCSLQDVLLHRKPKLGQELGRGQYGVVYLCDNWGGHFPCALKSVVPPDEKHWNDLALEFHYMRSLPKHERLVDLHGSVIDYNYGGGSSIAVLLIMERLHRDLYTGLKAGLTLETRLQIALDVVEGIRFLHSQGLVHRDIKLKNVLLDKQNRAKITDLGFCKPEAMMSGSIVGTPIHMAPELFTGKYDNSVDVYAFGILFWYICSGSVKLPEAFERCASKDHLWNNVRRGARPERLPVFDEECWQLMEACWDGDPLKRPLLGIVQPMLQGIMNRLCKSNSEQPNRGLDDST
Summary of the method: as §1

ROCK2 = target: T9, ROCK2 (Homo sapiens, UniProt O75116)
T9 construct: purchased Reaction Biology Corp
Summary of the method: as §1

SSTK/TSSK6 = target: T10, SSTK/TSSK6 (Homo sapiens, UniProt Q9BXA6)
T10 construct: purchased Reaction Biology Corp
Summary of the method: as §1

TESK1 = target: T11, TESK1 (Homo sapiens, UniProt Q15569)
T11 construct: purchased Reaction Biology Corp
Summary of the method: as §1

[1] = read-out: % Enzyme Activity (relative to DMSO controls) AVG
[2] = read-out: % Enzyme Activity (relative to DMSO controls) Data 1
[3] = read-out: % Enzyme Activity (relative to DMSO controls) Data 2

T2 sequence (Q00526 whole entry): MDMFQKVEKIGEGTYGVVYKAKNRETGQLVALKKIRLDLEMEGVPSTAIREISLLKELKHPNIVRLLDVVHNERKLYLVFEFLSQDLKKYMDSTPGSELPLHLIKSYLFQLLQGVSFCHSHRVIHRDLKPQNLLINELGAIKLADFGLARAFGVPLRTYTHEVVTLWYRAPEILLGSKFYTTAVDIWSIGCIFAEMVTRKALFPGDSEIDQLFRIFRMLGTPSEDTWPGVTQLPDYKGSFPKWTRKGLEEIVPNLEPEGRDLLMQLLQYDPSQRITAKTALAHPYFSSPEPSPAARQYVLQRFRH
T2 sequence (P24864 whole entry partner): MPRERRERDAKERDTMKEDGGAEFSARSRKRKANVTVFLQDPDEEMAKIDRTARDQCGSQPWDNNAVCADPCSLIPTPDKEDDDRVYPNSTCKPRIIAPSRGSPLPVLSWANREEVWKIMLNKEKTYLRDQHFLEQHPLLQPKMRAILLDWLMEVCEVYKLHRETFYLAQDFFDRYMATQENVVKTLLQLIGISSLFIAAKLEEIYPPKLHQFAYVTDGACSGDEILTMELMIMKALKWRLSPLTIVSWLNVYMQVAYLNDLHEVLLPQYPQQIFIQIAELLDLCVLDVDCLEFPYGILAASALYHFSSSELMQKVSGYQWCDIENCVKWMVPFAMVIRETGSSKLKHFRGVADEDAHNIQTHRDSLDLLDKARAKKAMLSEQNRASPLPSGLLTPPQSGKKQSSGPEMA
T6 sequence (Q92918 whole entry): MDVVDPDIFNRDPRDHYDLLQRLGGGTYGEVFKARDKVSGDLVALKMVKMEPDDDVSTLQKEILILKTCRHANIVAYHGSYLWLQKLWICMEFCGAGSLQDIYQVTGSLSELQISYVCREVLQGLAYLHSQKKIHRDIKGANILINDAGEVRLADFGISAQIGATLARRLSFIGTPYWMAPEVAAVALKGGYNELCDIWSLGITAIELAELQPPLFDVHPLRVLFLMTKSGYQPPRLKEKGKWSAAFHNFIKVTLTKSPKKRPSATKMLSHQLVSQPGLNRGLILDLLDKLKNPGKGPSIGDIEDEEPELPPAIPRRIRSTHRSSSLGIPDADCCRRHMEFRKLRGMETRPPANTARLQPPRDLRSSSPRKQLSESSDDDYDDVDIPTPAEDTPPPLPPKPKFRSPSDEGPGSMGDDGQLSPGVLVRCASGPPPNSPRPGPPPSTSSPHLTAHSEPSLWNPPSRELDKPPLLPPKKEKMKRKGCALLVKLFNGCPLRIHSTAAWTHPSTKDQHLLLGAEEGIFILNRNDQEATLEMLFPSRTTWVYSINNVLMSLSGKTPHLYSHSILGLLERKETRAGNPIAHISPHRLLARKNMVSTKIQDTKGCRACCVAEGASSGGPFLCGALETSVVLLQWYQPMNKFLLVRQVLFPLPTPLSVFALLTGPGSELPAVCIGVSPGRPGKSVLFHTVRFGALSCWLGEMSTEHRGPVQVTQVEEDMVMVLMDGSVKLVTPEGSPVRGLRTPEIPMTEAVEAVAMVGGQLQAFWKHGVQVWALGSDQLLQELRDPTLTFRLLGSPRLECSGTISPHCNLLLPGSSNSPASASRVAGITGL
T3 sequence (O96017 whole entry): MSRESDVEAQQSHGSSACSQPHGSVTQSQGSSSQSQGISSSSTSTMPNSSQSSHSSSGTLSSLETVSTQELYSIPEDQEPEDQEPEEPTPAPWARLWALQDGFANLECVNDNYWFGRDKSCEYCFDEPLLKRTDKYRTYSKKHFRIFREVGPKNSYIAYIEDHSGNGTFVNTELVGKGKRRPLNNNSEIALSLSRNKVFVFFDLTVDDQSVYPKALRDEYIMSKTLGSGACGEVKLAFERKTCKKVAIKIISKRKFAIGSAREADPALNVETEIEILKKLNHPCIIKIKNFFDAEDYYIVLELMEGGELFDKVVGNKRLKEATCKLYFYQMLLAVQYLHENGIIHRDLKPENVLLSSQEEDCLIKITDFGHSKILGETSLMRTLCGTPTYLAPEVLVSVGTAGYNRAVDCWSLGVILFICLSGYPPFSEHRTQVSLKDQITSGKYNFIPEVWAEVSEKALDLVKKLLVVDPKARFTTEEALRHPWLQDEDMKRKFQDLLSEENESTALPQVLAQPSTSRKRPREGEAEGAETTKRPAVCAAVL
T7 sequence (P27448 whole entry): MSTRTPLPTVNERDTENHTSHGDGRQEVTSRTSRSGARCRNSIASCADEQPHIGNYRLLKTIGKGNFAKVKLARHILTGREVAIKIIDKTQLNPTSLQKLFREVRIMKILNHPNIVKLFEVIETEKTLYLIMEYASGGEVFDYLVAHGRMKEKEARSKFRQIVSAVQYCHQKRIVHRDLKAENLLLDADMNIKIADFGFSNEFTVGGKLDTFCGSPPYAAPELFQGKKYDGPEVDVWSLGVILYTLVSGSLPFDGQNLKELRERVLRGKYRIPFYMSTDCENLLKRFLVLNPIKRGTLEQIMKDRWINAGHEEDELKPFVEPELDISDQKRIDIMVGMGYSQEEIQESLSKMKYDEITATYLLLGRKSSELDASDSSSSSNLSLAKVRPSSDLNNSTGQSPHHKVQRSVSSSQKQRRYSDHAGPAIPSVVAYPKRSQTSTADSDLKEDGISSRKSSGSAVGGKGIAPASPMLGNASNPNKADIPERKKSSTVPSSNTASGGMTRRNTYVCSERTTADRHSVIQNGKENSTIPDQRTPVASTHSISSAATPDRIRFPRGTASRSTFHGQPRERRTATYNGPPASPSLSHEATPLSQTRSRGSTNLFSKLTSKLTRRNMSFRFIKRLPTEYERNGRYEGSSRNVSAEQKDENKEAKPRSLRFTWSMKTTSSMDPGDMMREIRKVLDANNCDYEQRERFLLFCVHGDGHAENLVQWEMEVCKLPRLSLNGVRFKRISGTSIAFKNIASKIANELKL
T4 sequence (P19784 whole entry): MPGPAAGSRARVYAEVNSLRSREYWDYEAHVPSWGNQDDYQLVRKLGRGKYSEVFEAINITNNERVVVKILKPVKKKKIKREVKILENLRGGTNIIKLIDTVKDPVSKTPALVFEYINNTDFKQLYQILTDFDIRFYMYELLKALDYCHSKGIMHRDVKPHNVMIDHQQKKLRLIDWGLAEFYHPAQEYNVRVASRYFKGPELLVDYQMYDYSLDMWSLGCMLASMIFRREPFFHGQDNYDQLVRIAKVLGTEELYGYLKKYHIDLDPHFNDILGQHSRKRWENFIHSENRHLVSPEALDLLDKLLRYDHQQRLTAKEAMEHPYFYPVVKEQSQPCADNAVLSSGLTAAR
T11 sequence (Q15569 whole entry): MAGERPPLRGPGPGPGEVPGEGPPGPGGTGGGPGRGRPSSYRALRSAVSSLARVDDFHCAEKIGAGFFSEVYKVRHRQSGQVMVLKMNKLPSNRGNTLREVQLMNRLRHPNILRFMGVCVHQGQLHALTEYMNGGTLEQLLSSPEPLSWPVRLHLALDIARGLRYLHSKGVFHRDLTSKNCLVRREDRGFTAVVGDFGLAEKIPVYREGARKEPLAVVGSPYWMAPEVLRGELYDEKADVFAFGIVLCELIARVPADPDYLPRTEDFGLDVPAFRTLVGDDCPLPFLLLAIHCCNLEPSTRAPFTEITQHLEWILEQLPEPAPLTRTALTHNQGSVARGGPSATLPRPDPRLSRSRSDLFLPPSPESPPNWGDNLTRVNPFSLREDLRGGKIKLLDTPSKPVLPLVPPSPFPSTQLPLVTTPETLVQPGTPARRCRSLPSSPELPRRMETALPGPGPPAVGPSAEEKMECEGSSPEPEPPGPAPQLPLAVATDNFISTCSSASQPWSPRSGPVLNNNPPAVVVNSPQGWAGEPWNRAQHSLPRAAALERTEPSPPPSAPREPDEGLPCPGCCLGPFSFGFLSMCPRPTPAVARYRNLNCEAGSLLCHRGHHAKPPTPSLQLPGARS
T1 sequence (P06493 whole entry): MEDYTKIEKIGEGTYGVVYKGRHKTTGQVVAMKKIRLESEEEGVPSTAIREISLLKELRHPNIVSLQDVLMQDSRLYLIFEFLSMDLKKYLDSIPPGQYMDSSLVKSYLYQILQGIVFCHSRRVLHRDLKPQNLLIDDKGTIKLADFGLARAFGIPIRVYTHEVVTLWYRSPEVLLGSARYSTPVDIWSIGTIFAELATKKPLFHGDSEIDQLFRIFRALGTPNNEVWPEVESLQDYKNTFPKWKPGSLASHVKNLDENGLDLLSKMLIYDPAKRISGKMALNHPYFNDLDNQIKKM
T1 sequence (P14635 whole entry partner): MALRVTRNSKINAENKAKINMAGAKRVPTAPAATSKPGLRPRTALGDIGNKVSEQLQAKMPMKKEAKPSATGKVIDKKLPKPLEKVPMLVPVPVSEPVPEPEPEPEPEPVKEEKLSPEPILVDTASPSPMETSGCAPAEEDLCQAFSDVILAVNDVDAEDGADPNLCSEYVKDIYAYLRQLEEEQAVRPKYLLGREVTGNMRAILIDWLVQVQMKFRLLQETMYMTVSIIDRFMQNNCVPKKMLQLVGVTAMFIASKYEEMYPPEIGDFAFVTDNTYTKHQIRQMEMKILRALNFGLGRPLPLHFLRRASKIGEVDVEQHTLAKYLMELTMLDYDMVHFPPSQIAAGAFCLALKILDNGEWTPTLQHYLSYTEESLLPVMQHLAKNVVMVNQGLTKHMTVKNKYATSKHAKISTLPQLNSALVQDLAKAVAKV
T10 sequence (Q9BXA6 whole entry): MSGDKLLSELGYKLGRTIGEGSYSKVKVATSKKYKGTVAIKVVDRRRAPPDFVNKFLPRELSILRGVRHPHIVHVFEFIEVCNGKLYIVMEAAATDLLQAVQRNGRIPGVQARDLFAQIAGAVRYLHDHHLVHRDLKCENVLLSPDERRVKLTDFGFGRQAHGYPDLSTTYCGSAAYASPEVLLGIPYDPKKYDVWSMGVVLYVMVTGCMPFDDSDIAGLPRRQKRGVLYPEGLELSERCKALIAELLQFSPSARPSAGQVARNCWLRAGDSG

`CC(C)(C)C(=O)N1N=CC[C@H]1c1ccccc1` [GSK′963] showed a remaining activity at 10 µM (CDK1/cyclin B; [1]) of 88.6%, a remaining activity at 10 µM (CDK1/cyclin B; [2]) of 84% and a remaining activity at 10 µM (CDK1/cyclin B; [3]) of 93.2%. For the same compound, the remaining activity at 10 µM (CDK3/cyclin E; [1]) was 106%, the remaining activity at 10 µM (CDK3/cyclin E; [2]) was 105% and the remaining activity at 10 µM (CDK3/cyclin E; [3]) was 107%. The remaining activity at 10 µM (CHK2; [1]) was 105%, the remaining activity at 10 µM (CHK2; [2]) was 106% and the remaining activity at 10 µM (CHK2; [3]) was 104%. For the same compound, the remaining activity at 10 µM (CK2a2; [1]) was 107%, the remaining activity at 10 µM (CK2a2; [2]) was 108% and the remaining activity at 10 µM (CK2a2; [3]) was 107%. It also gave a remaining activity at 10 µM (FLT3; [1]) of 101%, a remaining activity at 10 µM (FLT3; [2]) of 98.7% and a remaining activity at 10 µM (FLT3; [3]) of 103%. For the same compound, the remaining activity at 10 µM (HPK1/MAP4K1; [1]) was 100%, the remaining activity at 10 µM (HPK1/MAP4K1; [2]) was 100% and the remaining activity at 10 µM (HPK1/MAP4K1; [3]) was 101%. The remaining activity at 10 µM (MARK3; [1]) was 100%, the remaining activity at 10 µM (MARK3; [2]) was 102% and the remaining activity at 10 µM (MARK3; [3]) was 98.3%. For the same compound, the remaining activity at 10 µM (RIPK5; [1]) was 101%, the remaining activity at 10 µM (RIPK5; [2]) was 102% and the remaining activity at 10 µM (RIPK5; [3]) was 99.6%. The remaining activity at 10 µM (ROCK2; [1]) was 98%, the remaining activity at 10 µM (ROCK2; [2]) was 99% and the remaining activity at 10 µM (ROCK2; [3]) was 97.1%. It also gave a remaining activity at 10 µM (SSTK/TSSK6; [1]) of 99%, a remaining activity at 10 µM (SSTK/TSSK6; [2]) of 99.3% and a remaining activity at 10 µM (SSTK/TSSK6; [3]) of 98.6%. It also gave a remaining activity at 10 µM (TESK1; [1]) of 116%, a remaining activity at 10 µM (TESK1; [2]) of 112% and a remaining activity at 10 µM (TESK1; [3]) of 120%.
